Experimental data reported in US20190038571A1, “Orally Available Small Molecules to Inhibit the Function of the Complement System” (priority 2017, published 2019).

What was measured:
[1] = system: classical complement pathway; test: sheep erythrocyte lysis assay (complement-mediated lysis of sensitized sheep erythrocytes in normal human serum); assay type: cell-based; settings: for Inhibition of complement-mediated sheep erythrocyte lysis: 240 nM to 50 uM added to normal human serum, 37° C., 30 min, hemoglobin absorption at 412 nm
Method: FIG. 1. […] Various concentrations of pterostilbene, ranging from 240 nM to 50 uM were added to normal human serum, which was then incubated at 37° C. with sensitized sheep erythrocytes.
The lysis of the sheep erythrocytes is mediated by the classical complement pathway.
Various concentrations of pterostilbene, ranging from 240 nM to 50 uM were added to normal human serum, which was then incubated at 37° C. with sensitized sheep erythrocytes. After a 30 min incubation, the remaining unlysed erythrocytes were pelleted by centrifugation and the amount of hemoglobin released by cell lysis was quantified by absorption spectroscopy at wavelength of 412 nm. Inhibition of lysis indicates reduced complement activity. This is representative data from 3 separate experiments.

[2] = in vivo; cited from earlier work
C5a receptor = target: T1, C5a receptor (Mus musculus, UniProt P30993); settings: cited from earlier work
T1 sequence (P30993 1-351): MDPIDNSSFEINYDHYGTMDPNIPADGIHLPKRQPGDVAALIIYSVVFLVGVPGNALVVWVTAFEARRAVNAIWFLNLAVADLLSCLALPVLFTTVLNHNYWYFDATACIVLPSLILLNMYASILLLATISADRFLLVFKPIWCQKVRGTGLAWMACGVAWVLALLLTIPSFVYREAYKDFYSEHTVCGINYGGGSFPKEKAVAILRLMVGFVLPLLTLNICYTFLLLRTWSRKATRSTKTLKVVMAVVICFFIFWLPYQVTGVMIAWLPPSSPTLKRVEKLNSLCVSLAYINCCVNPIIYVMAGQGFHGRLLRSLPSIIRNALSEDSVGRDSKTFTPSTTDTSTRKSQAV

CA1 neurons = settings: in vivo; cited from earlier work

Compound: COc1cc(/C=C/c2ccc(O)cc2)cc(OC)c1 [CCB-695, pterostilbene]
- Inhibition of complement-mediated sheep erythrocyte lysis [1]: inhibition of complement-mediated sheep erythrocyte lysis
- concentration active to inhibit complement system ([1]; in human serum): lower than 1 μM
- potency in the sheep erythrocyte lysis assay relative to the other stilbene ([1]; pterostilbene versus resveratrol): greater potency than resveratrol
- bioavailability [2]: superior pharmacokinetics and bioavailability

Compound: PMX53
- beta amyloid induced loss of MAP-2 (C5a receptor): blocked

Compound: Oc1ccc(C=Cc2cc(O)cc(O)c2)cc1 [Resveratrol]
- Inhibition of complement-mediated sheep erythrocyte lysis [1]: active
- bioavailability [2]: poor bioavailability
- protection of CA1 neurons from ischemia reperfusion damage (CA1 neurons): protects CA1 neurons from ischemia reperfusion damage
